According to the NIST ThermoML archive (doi:10.1016/j.tca.2008.06.004):

Experiments:
[1] = 101.33 kPa, Liquid; for mass density: Pycnometric method; for speed of sound: Linear variable-path acoustic interferometer
[2] = excess molar enthalpy (molar enthalpy of mixing); xn = mol fraction of the nth substance listed; settings: 308.15 K, 101 kPa, Liquid, Calvet calorimetry
[3] = xn = mol fraction of the nth substance listed; settings: 101 kPa, Liquid; for excess molar volume: 298.15 K, Direct dilatometry; for speed of sound: 308.15 K, Linear variable-path acoustic interferometer

Cc1ccccc1N [2-methylaniline]
[1]
Settings	mass density [kg/m3]	speed of sound [m/s]
298.15 K	994.28	–
308.15 K	–	1603

Cc1ccccc1N [2-methylaniline] + C1CCCCC1
Settings	excess molar enthalpy [kcal/mol]	excess molar volume [m3/mol]	speed of sound [m/s]
[2], x1 = 0.0527	0.0635	–	–
[2], x1 = 0.1017	0.121	–	–
[2], x1 = 0.1628	0.189	–	–
[2], x1 = 0.2349	0.26	–	–
[2], x1 = 0.2681	0.313	–	–
[2], x1 = 0.3614	0.354	–	–
[2], x1 = 0.4213	0.382	–	–
[2], x1 = 0.4907	0.399	–	–
[2], x1 = 0.5613	0.398	–	–
[2], x1 = 0.6121	0.387	–	–
[2], x1 = 0.6774	0.357	–	–
[2], x1 = 0.7643	0.294	–	–
[2], x1 = 0.8391	0.219	–	–
[2], x1 = 0.931	0.102	–	–
[3], x1 = 0.0663	–	–	1215
[3], x1 = 0.0768	–	2.41e-07	–
[3], x1 = 0.1293	–	–	1221
[3], x1 = 0.1415	–	3.87e-07	–
[3], x1 = 0.1758	–	–	1228
[3], x1 = 0.1925	–	4.7e-07	–
[3], x1 = 0.2355	–	–	1239
[3], x1 = 0.2442	–	5.29e-07	–
[3], x1 = 0.2901	–	5.62e-07	–
[3], x1 = 0.2902	–	–	1252
[3], x1 = 0.3335	–	–	1264
[3], x1 = 0.3415	–	5.81e-07	–
[3], x1 = 0.393	–	–	1282
[3], x1 = 0.3981	–	5.82e-07	–
[3], x1 = 0.4506	–	5.68e-07	–
[3], x1 = 0.4881	–	–	1315
[3], x1 = 0.5225	–	5.29e-07	–
[3], x1 = 0.556	–	–	1342
[3], x1 = 0.6103	–	4.57e-07	–
[3], x1 = 0.6453	–	–	1382
[3], x1 = 0.6875	–	3.79e-07	–
[3], x1 = 0.7117	–	–	1415
[3], x1 = 0.7513	–	3.07e-07	–
[3], x1 = 0.7986	–	–	1462
[3], x1 = 0.8224	–	2.22e-07	–
[3], x1 = 0.8479	–	–	1493
[3], x1 = 0.9026	–	–	1528
[3], x1 = 0.9119	–	1.11e-07	–

Cc1ccccc1N [2-methylaniline] + CCCCCC
Settings	excess molar enthalpy [kcal/mol]	excess molar volume [m3/mol]	speed of sound [m/s]
[2], x1 = 0.0678	0.0385	–	–
[2], x1 = 0.1317	0.084	–	–
[2], x1 = 0.1927	0.132	–	–
[2], x1 = 0.2505	0.179	–	–
[2], x1 = 0.3314	0.242	–	–
[2], x1 = 0.4015	0.29	–	–
[2], x1 = 0.4718	0.328	–	–
[2], x1 = 0.5317	0.35	–	–
[2], x1 = 0.5997	0.36	–	–
[2], x1 = 0.6532	0.355	–	–
[2], x1 = 0.7013	0.341	–	–
[2], x1 = 0.7717	0.301	–	–
[2], x1 = 0.8439	0.235	–	–
[2], x1 = 0.9164	0.142	–	–
[3], x1 = 0.0697	–	–	1056
[3], x1 = 0.0712	–	-4.8e-08	–
[3], x1 = 0.1172	–	–	1075
[3], x1 = 0.1767	–	-1.25e-07	–
[3], x1 = 0.1851	–	–	1105
[3], x1 = 0.2524	–	-1.84e-07	–
[3], x1 = 0.2657	–	–	1142
[3], x1 = 0.2933	–	-2.15e-07	–
[3], x1 = 0.3119	–	–	1165
[3], x1 = 0.3442	–	-2.52e-07	–
[3], x1 = 0.3707	–	–	1194
[3], x1 = 0.3801	–	-2.77e-07	–
[3], x1 = 0.4443	–	-3.15e-07	–
[3], x1 = 0.4478	–	–	1232
[3], x1 = 0.4903	–	-3.38e-07	–
[3], x1 = 0.5009	–	–	1259
[3], x1 = 0.5613	–	-3.63e-07	–
[3], x1 = 0.5787	–	–	1297
[3], x1 = 0.6363	–	-3.71e-07	–
[3], x1 = 0.6449	–	–	1329
[3], x1 = 0.6991	–	-3.61e-07	–
[3], x1 = 0.709	–	–	1359
[3], x1 = 0.7552	–	-3.36e-07	–
[3], x1 = 0.7673	–	–	1389
[3], x1 = 0.8345	–	-2.71e-07	–
[3], x1 = 0.8391	–	–	1433
[3], x1 = 0.9123	–	–	1501
[3], x1 = 0.9265	–	-1.46e-07	–

Cc1ccccc1N [2-methylaniline] + CCCCCCC
Settings	excess molar enthalpy [kcal/mol]	excess molar volume [m3/mol]	speed of sound [m/s]
[2], x1 = 0.0734	0.0479	–	–
[2], x1 = 0.1457	0.0872	–	–
[2], x1 = 0.1968	0.112	–	–
[2], x1 = 0.2678	0.144	–	–
[2], x1 = 0.3109	0.162	–	–
[2], x1 = 0.3874	0.193	–	–
[2], x1 = 0.4467	0.215	–	–
[2], x1 = 0.5019	0.234	–	–
[2], x1 = 0.5876	0.256	–	–
[2], x1 = 0.6513	0.264	–	–
[2], x1 = 0.7016	0.263	–	–
[2], x1 = 0.7767	0.244	–	–
[2], x1 = 0.8312	0.215	–	–
[2], x1 = 0.9267	0.12	–	–
[3], x1 = 0.0707	–	–	1102
[3], x1 = 0.0814	–	-4.8e-08	–
[3], x1 = 0.1227	–	–	1115
[3], x1 = 0.1663	–	-1.02e-07	–
[3], x1 = 0.1758	–	–	1129
[3], x1 = 0.2224	–	-1.37e-07	–
[3], x1 = 0.2378	–	–	1148
[3], x1 = 0.2812	–	-1.71e-07	–
[3], x1 = 0.3079	–	–	1172
[3], x1 = 0.3388	–	-1.99e-07	–
[3], x1 = 0.3508	–	–	1187
[3], x1 = 0.3991	–	-2.23e-07	–
[3], x1 = 0.4047	–	–	1208
[3], x1 = 0.4554	–	-2.38e-07	–
[3], x1 = 0.4679	–	–	1233
[3], x1 = 0.5218	–	-2.47e-07	–
[3], x1 = 0.547	–	–	1266
[3], x1 = 0.5804	–	-2.45e-07	–
[3], x1 = 0.6131	–	–	1296
[3], x1 = 0.6446	–	-2.33e-07	–
[3], x1 = 0.6884	–	–	1334
[3], x1 = 0.7112	–	-2.1e-07	–
[3], x1 = 0.7597	–	–	1373
[3], x1 = 0.7819	–	-1.73e-07	–
[3], x1 = 0.8208	–	–	1413
[3], x1 = 0.8503	–	-1.27e-07	–
[3], x1 = 0.9224	–	–	1501
[3], x1 = 0.9383	–	-6.7e-08	–

C1CCCCC1 [cyclohexane]
[1], 298.15 K
Settings	mass density [kg/m3]	speed of sound [m/s]
–	773.94	1255

CCCCCCC [heptane]
[1]
Settings	mass density [kg/m3]	speed of sound [m/s]
298.15 K	679.49	–
308.15 K	–	1088

CCCCCC [hexane]
[1], 298.15 K
Settings	mass density [kg/m3]	speed of sound [m/s]
–	654.82	1079
